Starred links: 1 amine or outer side, 2 acyl side, 3 side chain; linkers in the order of their positions; H or OH if unused. Non-standard residues stand in square brackets, D forms with d. Residues, ends and D or L forms follow the SMILES beside them. Groups on a side chain read outwards from the residue. *: point of attachment. X1 = O=C(CCCCCCCCCCCCCCCc1nnn[nH]1)NS(=O)(=O)CCCC(=O)*; C20 diacid = O=C(O)CCCCCCCCCCCCCCCCCCC(=O)*; C18 diacid = O=C(O)CCCCCCCCCCCCCCCCC(=O)*; d(βAsp) = O=C(O)[C@@H](CC(=O)[*:2])N[*:1]; γGlu = O=C(O)[C@H](CCC(=O)[*:2])N[*:1]; Desaminohistidyl = O=C(CCc1c[nH]cn1)*; 12Ado = NCCCCCCCCCCCC(=O)O; AEEA = NCCOCCOCC(=O)O; Aib = CC(C)(N)C(=O)O; Inp = O=C(O)C1CCNCC1; GABA = NCCCC(=O)O
Target: human serum albumin (HSA) (Homo sapiens, UniProt P02768)
Sequence (P02768 25-609): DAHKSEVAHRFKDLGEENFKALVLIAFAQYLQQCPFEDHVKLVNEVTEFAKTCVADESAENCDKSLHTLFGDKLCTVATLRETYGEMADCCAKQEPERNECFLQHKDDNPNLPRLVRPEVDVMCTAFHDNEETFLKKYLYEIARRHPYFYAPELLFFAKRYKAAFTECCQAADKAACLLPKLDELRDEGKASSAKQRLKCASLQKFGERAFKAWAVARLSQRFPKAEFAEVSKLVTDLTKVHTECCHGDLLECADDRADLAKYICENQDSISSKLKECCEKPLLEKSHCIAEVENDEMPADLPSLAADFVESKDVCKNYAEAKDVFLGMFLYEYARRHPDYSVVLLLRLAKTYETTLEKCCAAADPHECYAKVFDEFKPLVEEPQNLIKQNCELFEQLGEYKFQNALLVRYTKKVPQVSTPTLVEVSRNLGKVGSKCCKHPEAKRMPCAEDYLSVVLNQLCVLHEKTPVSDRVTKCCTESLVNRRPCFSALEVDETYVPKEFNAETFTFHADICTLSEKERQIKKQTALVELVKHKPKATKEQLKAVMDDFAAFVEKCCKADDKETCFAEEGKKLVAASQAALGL
Assay: Albumin binding affinity, competition scintillation proximity assay
Conditions: not given

EC50 | SMILES
300 to 800 nM | CC[C@H](C)[C@H](NC(=O)[C@H](Cc1ccccc1)NC(=O)[C@H](CCC(=O)O)NC(=O)[C@H](CCCNC(=N)N)NC(=O)[C@H](C)NC(=O)[C@H](C)NC(=O)[C@H](CCCCNC(=O)COCCOCCNC(=O)COCCOCCNC(=O)C[C@@H](NC(=O)C1CCN(C(=O)CCCCCCCCCCCCCCCCC(=O)O)CC1)C(=O)O)NC(=O)CNC(=O)[C@H](CCC(=O)O)NC(=O)[C@H](CC(C)C)NC(=O)[C@H](Cc1ccc(O)cc1)NC(=O)[C@H](CO)NC(=O)[C@H](CO)NC(=O)[C@@H](NC(=O)[C@H](CC(=O)O)NC(=O)[C@H](CO)NC(=O)[C@@H](NC(=O)[C@H](Cc1ccccc1)NC(=O)[C@@H](NC(=O)CNC(=O)[C@H](CCC(=O)O)NC(=O)C(C)(C)NC(=O)[C@@H](N)Cc1c[nH]cn1)[C@@H](C)O)[C@@H](C)O)C(C)C)C(=O)N[C@@H](C)C(=O)N[C@@H](Cc1c[nH]c2ccccc12)C(=O)N[C@@H](CC(C)C)C(=O)N[C@H](C(=O)N[C@@H](CCCNC(=N)N)C(=O)NCC(=O)N[C@@H](CCCNC(=N)N)C(=O)NCC(=O)O)C(C)C [Example 5] (H-H[Aib]EGTFTSDVSSYLEGK([AEEA-AEEA-d(βAsp)-Inp-C18 diacid])AAREFIAWLVRGRG-OH)
1 to 100 nM | CC[C@H](C)[C@H](NC(=O)[C@H](Cc1ccccc1)NC(=O)[C@H](CCC(=O)O)NC(=O)[C@H](CCCNC(=N)N)NC(=O)[C@H](C)NC(=O)[C@H](C)NC(=O)[C@H](CCC(N)=O)NC(=O)[C@H](CCC(=O)O)NC(=O)[C@H](CCC(=O)O)NC(=O)[C@H](CC(C)C)NC(=O)[C@H](Cc1ccc(O)cc1)NC(=O)[C@H](CO)NC(=O)[C@H](CO)NC(=O)[C@@H](NC(=O)[C@H](CC(=O)O)NC(=O)[C@H](CO)NC(=O)[C@@H](NC(=O)[C@H](Cc1ccccc1)NC(=O)[C@@H](NC(=O)CNC(=O)[C@H](CCC(=O)O)NC(=O)C(C)(C)NC(=O)[C@@H](N)Cc1c[nH]cn1)[C@@H](C)O)[C@@H](C)O)C(C)C)C(=O)N[C@@H](C)C(=O)N[C@@H](Cc1c[nH]c2ccccc12)C(=O)N[C@@H](CC(C)C)C(=O)N[C@H](C(=O)N[C@@H](CCCNC(=N)N)C(=O)NCC(=O)N[C@@H](CCCNC(=N)N)C(=O)NCC(=O)N[C@@H](CCCCNC(=O)COCCOCCNC(=O)CC[C@H](NC(=O)CC[C@H](NC(=O)CCCCCCCCCCCNC(=O)CCCS(=O)(=O)NC(=O)CCCCCCCCCCCCCCCc1nnn[nH]1)C(=O)O)C(=O)O)C(N)=O)C(C)C [Example 46, [Aib8,Glu22,Arg26,Arg34]GLP-1-(7-37)Lys[2-(2-{2-[(S)-4-Carboxy-4-((S)-4-carboxy-4-{12-[4-(16-(1H-tetrazol-5-yl)hexadecanoylsulfamoyl)butyrylamino]dodecanoylamino}-butyrylamino)butyrylamino]ethoxy}ethoxy)acetyl]amide] (H-H[Aib]EGTFTSDVSSYLEEQAAREFIAWLVRGRGK([AEEA-γGlu-γGlu-12Ado-X1])-NH2)
800 to 2000 nM | CC[C@H](C)[C@H](NC(=O)[C@H](Cc1ccccc1)NC(=O)[C@H](CCC(=O)O)NC(=O)[C@H](CCCNC(=N)N)NC(=O)[C@H](C)NC(=O)[C@H](C)NC(=O)[C@H](CCC(N)=O)NC(=O)[C@H](CCC(=O)O)NC(=O)[C@H](CCC(=O)O)NC(=O)[C@H](CC(C)C)NC(=O)[C@H](Cc1ccc(O)cc1)NC(=O)[C@H](CO)NC(=O)[C@H](CO)NC(=O)[C@@H](NC(=O)[C@H](CC(=O)O)NC(=O)[C@H](CO)NC(=O)[C@@H](NC(=O)[C@H](Cc1ccccc1)NC(=O)[C@@H](NC(=O)CNC(=O)[C@H](CCC(=O)O)NC(=O)C(C)(C)NC(=O)[C@@H](N)Cc1c[nH]cn1)[C@@H](C)O)[C@@H](C)O)C(C)C)C(=O)N[C@@H](C)C(=O)N[C@@H](Cc1c[nH]c2ccccc12)C(=O)N[C@@H](CC(C)C)C(=O)N[C@H](C(=O)N[C@@H](CCCNC(=N)N)C(=O)NCC(=O)N[C@@H](CCCNC(=N)N)C(=O)N[C@@H](CCCCNC(=O)COCCOCCNC(=O)COCCOCCNC(=O)CC[C@H](NC(=O)[C@H]1CC[C@H](CNC(=O)CCCCCCCCCCCCCCCCCCC(=O)O)CC1)C(=O)O)C(N)=O)C(C)C [Example 23, N-epsilon37-[2-(2-{2-[2-(2-{2-[(S)-4-Carboxy-4-({trans-4-[(19-carboxy-nonadecanoylamino)methyl]cyclohexanecarbonyl}amino)butyrylamino]ethoxy}ethoxy)acetylamino]ethoxy}ethoxy)acetyl][Aib8,Glu22,Arg26,Arg34,Lys37]GLP-1-(7-37)amide]

Same assay, conditions: human, biotinylated human serum albumin on streptavidin-SPA beads, pH 7.4

SMILES | EC50 at 20 h
CC[C@H](C)[C@H](NC(=O)[C@H](Cc1ccccc1)NC(=O)[C@H](CCC(=O)O)NC(=O)[C@H](CCCNC(=N)N)NC(=O)[C@H](C)NC(=O)[C@H](C)NC(=O)[C@H](CCC(N)=O)NC(=O)[C@H](CCC(=O)O)NC(=O)[C@H](CCC(=O)O)NC(=O)[C@H](CC(C)C)NC(=O)[C@H](Cc1ccc(O)cc1)NC(=O)[C@H](CO)NC(=O)[C@H](CO)NC(=O)[C@@H](NC(=O)[C@H](CC(=O)O)NC(=O)[C@H](CO)NC(=O)[C@@H](NC(=O)[C@H](Cc1ccccc1)NC(=O)[C@@H](NC(=O)CNC(=O)[C@H](CCC(=O)O)NC(=O)[C@H](C)NC(=O)CCc1c[nH]cn1)[C@@H](C)O)[C@@H](C)O)C(C)C)C(=O)N[C@@H](C)C(=O)N[C@@H](Cc1c[nH]c2ccccc12)C(=O)N[C@@H](CC(C)C)C(=O)N[C@H](C(=O)N[C@@H](CCCNC(=N)N)C(=O)NCC(=O)N[C@@H](CCCNC(=N)N)C(=O)NCC(=O)N[C@@H](CCCCNC(=O)COCCOCCNC(=O)CC[C@H](NC(=O)COCCOCCNC(=O)CC[C@H](NC(=O)C1CCN(C(=O)CCCCCCCCCCCCCCCCCCC(=O)O)CC1)C(=O)O)C(=O)O)C(=O)O)C(C)C [Example 58, [DesaminoHis7,Glu22,Arg26,34]-GLP-1 (7-37)-Lys-(2-(2-{2-[(S)-4-carboxy-4-(2-{2-[2-((S)-4-carboxy-4-{[1-(19-carboxynonadecanoyl)piperidine-4-carbonyl]amino}butyrylamino)ethoxy]ethoxy}acetylamino)butyrylamino]ethoxy}ethoxy)acetyl) peptide] (Desaminohistidyl-AEGTFTSDVSSYLEEQAAREFIAWLVRGRGK([AEEA-γGlu-AEEA-γGlu-Inp-C20 diacid])-OH) | 100 to 150 nM
CC[C@H](C)[C@H](NC(=O)[C@H](Cc1ccccc1)NC(=O)[C@H](CCC(=O)O)NC(=O)[C@H](CCCNC(=N)N)NC(=O)[C@H](C)NC(=O)[C@H](C)NC(=O)[C@H](CCC(N)=O)NC(=O)C(C)(C)NC(=O)[C@H](CCC(=O)O)NC(=O)[C@H](CC(C)C)NC(=O)[C@H](Cc1ccc(O)cc1)NC(=O)[C@H](CCCCNC(=O)COCCOCCNC(=O)COCCOCCNC(=O)CC[C@H](NC(=O)C1CCN(C(=O)CCCCCCCCCCCCCCCCCCC(=O)O)CC1)C(=O)O)NC(=O)[C@H](CO)NC(=O)[C@@H](NC(=O)[C@H](CC(=O)O)NC(=O)[C@H](CO)NC(=O)[C@@H](NC(=O)[C@H](Cc1ccccc1)NC(=O)[C@@H](NC(=O)CNC(=O)[C@H](CCC(=O)O)NC(=O)C(C)(C)NC(=O)[C@@H](N)Cc1c[nH]cn1)[C@@H](C)O)[C@@H](C)O)C(C)C)C(=O)N[C@@H](C)C(=O)N[C@@H](Cc1c[nH]c2ccccc12)C(=O)N[C@@H](CC(C)C)C(=O)N[C@H](C(=O)N[C@@H](CCCNC(=N)N)C(=O)NC(C)(C)C(=O)N[C@@H](CCCNC(=N)N)C(=O)NCC(=O)O)C(C)C [Example 70] (H-H[Aib]EGTFTSDVSK([AEEA-AEEA-γGlu-Inp-C20 diacid])YLE[Aib]QAAREFIAWLVR[Aib]RG-OH) | 800 to 2000 nM

Continued, values first:

EC50 at 20 h | SMILES
150 to 300 nM | CC[C@H](C)[C@H](NC(=O)[C@H](Cc1ccccc1)NC(=O)[C@H](CCC(=O)O)NC(=O)[C@H](CCCNC(=N)N)NC(=O)[C@H](C)NC(=O)[C@H](C)NC(=O)[C@H](CCC(N)=O)NC(=O)[C@H](CCC(=O)O)NC(=O)[C@H](CCC(=O)O)NC(=O)[C@H](CC(C)C)NC(=O)[C@H](Cc1ccc(O)cc1)NC(=O)[C@H](CO)NC(=O)[C@H](CO)NC(=O)[C@@H](NC(=O)[C@H](CC(=O)O)NC(=O)[C@H](CO)NC(=O)[C@@H](NC(=O)[C@H](Cc1ccccc1)NC(=O)[C@@H](NC(=O)CNC(=O)[C@H](CCC(=O)O)NC(=O)C(C)(C)NC(=O)[C@@H](N)Cc1c[nH]cn1)[C@@H](C)O)[C@@H](C)O)C(C)C)C(=O)N[C@@H](CCC(=O)O)C(=O)N[C@@H](Cc1c[nH]c2ccccc12)C(=O)N[C@@H](CC(C)C)C(=O)N[C@H](C(=O)N[C@@H](CCCCN)C(=O)NCC(=O)N[C@@H](CCCNC(=N)N)C(=O)N1CCC[C@H]1C(=O)N[C@@H](CCCCNC(=O)COCCOCCNC(=O)CC[C@H](NC(=O)CC[C@H](NC(=O)CCCNC(=O)CCCS(=O)(=O)NC(=O)CCCCCCCCCCCCCCCc1nnn[nH]1)C(=O)O)C(=O)O)C(=O)O)C(C)C [Example 51, [Aib8,Glu22,Arg26,Glu30,Pro37]GLP-1-(7-37)Lys [2-(2-{2-[4-Carboxy-4-(4-carboxy-4-{4-[4-(16-1H-tetrazol-5-yl-hexadecanoylsulfamoyl)butyrylamino]butyrylamino}butyrylamino)butyrylamino]ethoxy}ethoxy)acetyl]] (H-H[Aib]EGTFTSDVSSYLEEQAAREFIEWLVKGRPK([AEEA-γGlu-γGlu-GABA-X1])-OH)
100 to 150 nM | CC[C@H](C)[C@H](NC(=O)[C@H](Cc1ccccc1)NC(=O)[C@H](CCC(=O)O)NC(=O)[C@H](CCCNC(=N)N)NC(=O)[C@H](C)NC(=O)[C@H](C)NC(=O)[C@H](CCC(N)=O)NC(=O)[C@H](CCC(=O)O)NC(=O)[C@H](CCC(=O)O)NC(=O)[C@H](CC(C)C)NC(=O)[C@H](Cc1ccc(O)cc1)NC(=O)[C@H](CO)NC(=O)[C@H](CO)NC(=O)[C@@H](NC(=O)[C@H](CC(=O)O)NC(=O)[C@H](CO)NC(=O)[C@@H](NC(=O)[C@H](Cc1ccccc1)NC(=O)[C@@H](NC(=O)CNC(=O)[C@H](CCC(=O)O)NC(=O)[C@H](C)NC(=O)CCc1c[nH]cn1)[C@@H](C)O)[C@@H](C)O)C(C)C)C(=O)N[C@@H](C)C(=O)N[C@@H](Cc1c[nH]c2ccccc12)C(=O)N[C@@H](CC(C)C)C(=O)N[C@H](C(=O)N[C@@H](CCCNC(=N)N)C(=O)NCC(=O)N[C@@H](CCCNC(=N)N)C(=O)NCC(=O)N[C@@H](CCCCNC(=O)CC[C@H](NC(=O)COCCOCCNC(=O)CC[C@H](NC(=O)C1CCN(C(=O)CCCCCCCCCCCCCCCCCCC(=O)O)CC1)C(=O)O)C(=O)O)C(=O)O)C(C)C [Example 57, [DesaminoHis7,Glu22,Arg26,34]-GLP-1 (7-37)-Lys((S)-4-carboxy-4-(2-{2-[2-((S)-4-carboxy-4-{[1-(19-carboxynonadecanoyl)piperidine-4-carbonyl]amino}butyrylamino)ethoxy]ethoxy}acetylamino)butyryl) peptide] (Desaminohistidyl-AEGTFTSDVSSYLEEQAAREFIAWLVRGRGK([γGlu-AEEA-γGlu-Inp-C20 diacid])-OH)
